± gives the expanded uncertainty stated by the source.
Assay: xn = mol fraction of the nth substance listed
Conditions: Liquid, Pycnometric method

[C-]#[O+] [carbon monoxide] + CCC(=O)O
Conditions	mass density [kg/m3]
293.2 K, x1 = 0.0156	988.2 ± 10
293.2 K, x1 = 0.0211	983.1 ± 10
293.2 K, x1 = 0.0237	978.3 ± 10
293.2 K, x1 = 0.0298	970.5 ± 10
293.2 K, x1 = 0.0353	962.3 ± 10
293.2 K, x1 = 0.0418	950.4 ± 10
293.2 K, x1 = 0.0487	937.2 ± 10
293.2 K, x1 = 0.0596	919.7 ± 9.7
313.2 K, x1 = 0.0121	985.4 ± 11
313.2 K, x1 = 0.0146	978.3 ± 10
313.2 K, x1 = 0.0202	972.6 ± 10
313.2 K, x1 = 0.0269	965.1 ± 10
313.2 K, x1 = 0.0311	957.4 ± 10
313.2 K, x1 = 0.0387	945.2 ± 10
313.2 K, x1 = 0.0465	931.2 ± 10
313.2 K, x1 = 0.0557	913.3 ± 9.9
333.2 K, x1 = 0.0105	977.4 ± 10
333.2 K, x1 = 0.0125	971.2 ± 10
333.2 K, x1 = 0.0179	964.9 ± 9.9
333.2 K, x1 = 0.024	958 ± 10
333.2 K, x1 = 0.028	949.8 ± 10
333.2 K, x1 = 0.0341	938.5 ± 10
333.2 K, x1 = 0.0418	925.3 ± 10
333.2 K, x1 = 0.0508	907.7 ± 9.9
353.2 K, x1 = 0.0082	968.4 ± 10
353.2 K, x1 = 0.0108	963 ± 10
353.2 K, x1 = 0.0165	956.7 ± 9.7
353.2 K, x1 = 0.0225	952.3 ± 9.8
353.2 K, x1 = 0.0267	944.7 ± 10
353.2 K, x1 = 0.0331	933.4 ± 10
353.2 K, x1 = 0.0407	919.6 ± 10
353.2 K, x1 = 0.0478	902.3 ± 10

[C-]#[O+] [carbon monoxide] + COC=O
Conditions	mass density [kg/m3]
293.2 K, x1 = 0.0184	976.3 ± 9.8
293.2 K, x1 = 0.0214	976.1 ± 9.8
293.2 K, x1 = 0.0274	974.9 ± 9.8
293.2 K, x1 = 0.0342	971.3 ± 9.8
293.2 K, x1 = 0.0445	964.7 ± 9.8
293.2 K, x1 = 0.054	954.7 ± 9.8
293.2 K, x1 = 0.0735	932.5 ± 9.6
293.2 K, x1 = 0.0914	911.2 ± 9.4
313.2 K, x1 = 0.012	972.1 ± 9.7
313.2 K, x1 = 0.0196	971.5 ± 9.7
313.2 K, x1 = 0.0259	969.3 ± 9.8
313.2 K, x1 = 0.0358	962.4 ± 9.8
313.2 K, x1 = 0.0473	950.8 ± 9.7
313.2 K, x1 = 0.0598	937.3 ± 9.7
313.2 K, x1 = 0.0691	924.7 ± 9.7
313.2 K, x1 = 0.0812	904.3 ± 9.7
333.2 K, x1 = 0.0101	969.2 ± 9.7
333.2 K, x1 = 0.0136	968.7 ± 9.7
333.2 K, x1 = 0.0204	967.6 ± 9.7
333.2 K, x1 = 0.0286	960.7 ± 9.8
333.2 K, x1 = 0.0412	947.8 ± 9.7
333.2 K, x1 = 0.0496	937.5 ± 9.7
333.2 K, x1 = 0.0613	923 ± 9.7
333.2 K, x1 = 0.0744	901.3 ± 9.6
353.2 K, x1 = 0.0063	964.6 ± 9.7
353.2 K, x1 = 0.01	964.2 ± 9.7
353.2 K, x1 = 0.0159	963.2 ± 9.7
353.2 K, x1 = 0.0224	956.8 ± 9.8
353.2 K, x1 = 0.0297	948.7 ± 9.8
353.2 K, x1 = 0.0401	935.3 ± 9.7
353.2 K, x1 = 0.0549	916.8 ± 9.6
353.2 K, x1 = 0.0696	895.8 ± 9.4
